Source: publication PMC11861906, “Structural basis for lipid-mediated activation of G protein-coupled receptor GPR55” (Nature Communications, 2025)

Columns and labels:
wt GPR55 (Gα12) = wt GPR55 (Gα12) (Homo sapiens, UniProt Q9Y2T6); test: BRET² G protein dissociation assay, wt GPR55 with Gα12; type: cell-based; conditions: for ΔBRET² ratio (Mean): GPR55-wt-G12
Text: Guided by structural insights, we employed the G protein dissociation assay to validate the G protein selectivity of GPR55. The sequences of Gα13 and Gα12 are highly similar (76% sequence similarity) and only seven Gα13 residues differ within a 4 Å sphere of the receptor- G protein interaction site (Fig. 5d). Therefore, we included Gα12 in our assays as a control since it was reported that 1-AG-PI-activated GPR55 signals exclusively via Gα13[10]. Herein, we observed robust G protein activation (concluded from a BRET² ratio decrease) when GPR55 was co-expressed with Gα13 (Fig. 5b), even without the addition of any ligand. (Fig. 2f and Supplementary Table S3). This observation is indicative of constitutive activity; however, it could also be explained by GPR55 interaction with cellular lipids that are ubiquitously present. […] (Fig. 5c).
(§1) G protein dissociation assays were performed according to the original protocols of the TRUPATH BRET² assay[47],[87] but with subtle modifications as previously described[61],[88],[89]. All reagents and cells were obtained from Thermo Fisher Scientific unless indicated otherwise. The coding sequences for the G protein biosensors[47] (Gα12-Rluc8, Gα13-Rluc8, wt Gβ3, and Gγ9-GFP), the wt GPR55, the construct used for cryo-EM (with GFP bearing a G67A mutation to disrupt fluorescence properties[48] for BRET² assays), GPR55 binding pocket mutants (G152^4.56F, G152^4.56W, N171^ECL2Q, N171^ECL2A, T176^5.33A, R253^6.62A), and the wt TBXA2R were codon-optimized for Homo sapiens, gene-synthesized, and sub-cloned into pcDNA^TM3.1(+) between NheI and HindIII restriction sites by GeneArt (Thermo Fisher Scientific). […] Freshly grown cells were washed with Dulbecco’s Balanced Salt Solution (DPBS, cat. #14200075) and detached using trypsin-ethylenediaminetetraacetic acid (trypsin-EDTA) (cat. #25300-062). Then, the cells were reconstituted to 500,000 cells per mL with fresh medium, and 1,000,000 cells were seeded into each well of a 6-well plate. After 3 h incubation at 37 °C and 5% CO2, adherent cells were transfected with 600 ng DNA (1:1:1:1 ratio of plasmid DNA for GPR55, wt Gβ3, Gγ9-GFP, and Gα12-Rluc8 or Gα13-Rluc8). Plasmid DNA was mixed with 1.5 µL Lipofectamine^TM 2000 (cat. #11668027) in Opti-MEM^TM medium (cat. #31985062) and incubated for 20 min. Then, the mixture was added to each well of the 6-well plate following 24 h incubation at 37 °C and 5% CO2. Transfected cells were washed with DPBS, detached using EDTA (Versene, cat. #15040066), and reconstituted into fresh medium at 500,000 cells mL^−1. From this suspension, 50,000 cells were seeded into each well of a white-bottom 96-well plate (Nunc^TM MicroWell^TM 96 wells, cat. #136101) following overnight incubation at 37 °C and 5% CO2. Then, the adherent cells were washed with assay medium [Hank’s balanced salt solution (HBSS, cat. #14065056) plus 20 mM HEPES pH 7.4 (cat. #15630056)] and finally reconstituted into 50 µL of the same medium. […] Methoxy e-Coelenterazine was used as luciferase substrate (Prolume Purple, NanoLight Technology, cat. #369), reconstituted at 1 mM in methanol and diluted to 37.5 µM with assay buffer (7.5 µM final assay concentration). The assay was started by the addition of 20 µL luciferase substrate to each well of the assay plate using a Multidrop^TM Combi reagent dispenser (Thermo Fisher Scientific), followed by 5 min incubation at room temperature. Then, 30 µL of agonist dilutions or DMSO control was added (final DMSO concentration 1.5%), followed by an additional 5 min incubation at room temperature.

[1] = biological target: thromboxane A2 receptor (TBXA2R) (Gα13) (Homo sapiens, UniProt P21731); test: BRET² G protein dissociation assay, TBXA2R with Gα13; type: cell-based; conditions: for Mean (plotted), G protein dissociation BRET² signal: TBXA2R-G13, Fig. 5c source data
Protocol: as §1

Chain of thromboxane A2 receptor (TBXA2R) (Gα13) (P21731 whole entry, species assumed): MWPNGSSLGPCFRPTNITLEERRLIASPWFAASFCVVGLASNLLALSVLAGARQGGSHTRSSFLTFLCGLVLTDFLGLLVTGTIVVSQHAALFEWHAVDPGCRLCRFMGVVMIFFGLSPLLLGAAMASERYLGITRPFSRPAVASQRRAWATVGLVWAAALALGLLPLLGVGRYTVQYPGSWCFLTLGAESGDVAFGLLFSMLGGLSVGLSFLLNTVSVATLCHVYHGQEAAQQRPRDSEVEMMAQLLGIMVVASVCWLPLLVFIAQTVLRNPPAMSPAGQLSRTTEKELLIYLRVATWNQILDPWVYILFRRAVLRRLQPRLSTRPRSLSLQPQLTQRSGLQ
Chain of thromboxane A2 receptor (TBXA2R) (Gα13) (Q14344 whole entry partner, species assumed): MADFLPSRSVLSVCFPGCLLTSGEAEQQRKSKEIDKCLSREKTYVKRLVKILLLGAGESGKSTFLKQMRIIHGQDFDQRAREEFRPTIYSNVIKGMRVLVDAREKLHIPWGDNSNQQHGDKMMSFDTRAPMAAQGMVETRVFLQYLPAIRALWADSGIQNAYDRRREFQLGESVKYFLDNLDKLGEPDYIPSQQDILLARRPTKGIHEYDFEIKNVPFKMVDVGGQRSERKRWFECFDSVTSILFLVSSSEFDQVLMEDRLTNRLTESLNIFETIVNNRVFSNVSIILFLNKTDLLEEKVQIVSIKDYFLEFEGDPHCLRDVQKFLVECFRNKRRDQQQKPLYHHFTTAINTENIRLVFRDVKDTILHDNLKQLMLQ
Chain of thromboxane A2 receptor (TBXA2R) (Gα13) (P16520 whole entry partner, species assumed): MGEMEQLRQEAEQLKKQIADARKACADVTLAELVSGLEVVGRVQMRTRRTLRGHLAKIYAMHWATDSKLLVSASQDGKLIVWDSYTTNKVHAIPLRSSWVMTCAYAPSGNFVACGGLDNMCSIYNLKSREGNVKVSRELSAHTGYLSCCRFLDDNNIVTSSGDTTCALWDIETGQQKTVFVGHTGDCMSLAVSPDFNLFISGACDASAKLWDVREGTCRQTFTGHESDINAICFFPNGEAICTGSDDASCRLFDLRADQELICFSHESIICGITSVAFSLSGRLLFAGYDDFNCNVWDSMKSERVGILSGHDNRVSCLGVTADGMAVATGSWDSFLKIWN
Chain of thromboxane A2 receptor (TBXA2R) (Gα13) (O14610 1-66 partner limits assumed, species assumed): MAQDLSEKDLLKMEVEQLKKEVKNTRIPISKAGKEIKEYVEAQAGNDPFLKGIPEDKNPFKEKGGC
Chain of wt GPR55 (Gα12) (Q9Y2T6 whole entry): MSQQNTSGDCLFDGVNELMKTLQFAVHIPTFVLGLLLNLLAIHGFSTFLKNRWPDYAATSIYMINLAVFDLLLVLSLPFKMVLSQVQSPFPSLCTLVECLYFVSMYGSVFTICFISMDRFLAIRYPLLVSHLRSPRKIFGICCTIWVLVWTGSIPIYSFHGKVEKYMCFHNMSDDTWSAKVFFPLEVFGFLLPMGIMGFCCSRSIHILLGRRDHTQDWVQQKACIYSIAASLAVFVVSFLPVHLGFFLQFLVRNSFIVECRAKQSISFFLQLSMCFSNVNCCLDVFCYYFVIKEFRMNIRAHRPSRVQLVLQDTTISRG

Cc1cccc(N2CCN(C(=O)c3cc(S(=O)(=O)N(C)C)ccc3N3CCCC3)CC2)c1C [ML184, 3-[[4-(2,3-dimethylphenyl)-1-piperazinyl]carbonyl]-N,N-dimethyl-4-(1-pyrrolidinyl)benzenesulfonamide]
ΔBRET² ratio (Mean) (wt GPR55 (Gα12); 3e-10 M): 0.009016 | ΔBRET² ratio (Mean) (wt GPR55 (Gα12); 1e-9 M): 0.003569 | ΔBRET² ratio (Mean) (wt GPR55 (Gα12); 3e-9 M): -0.002484 | ΔBRET² ratio (Mean) (wt GPR55 (Gα12); 1e-8 M): -0.008889 | ΔBRET² ratio (Mean) (wt GPR55 (Gα12); 3e-8 M): -0.006497 | ΔBRET² ratio (Mean) (wt GPR55 (Gα12); 1e-7 M): -0.00961 | ΔBRET² ratio (Mean) (wt GPR55 (Gα12); 3e-7 M): -0.01427 | ΔBRET² ratio (Mean) (wt GPR55 (Gα12); 1e-6 M): -0.01536 | ΔBRET² ratio (Mean) (wt GPR55 (Gα12); 3e-6 M): -0.01786 | ΔBRET² ratio (Mean) (wt GPR55 (Gα12); 1e-5 M): -0.02016 | ΔBRET² ratio (Mean) (wt GPR55 (Gα12); 3e-5 M): -0.02115 | Mean (plotted), G protein dissociation BRET² signal ([1]; concentration 300 pM): -0.002664 | Mean (plotted), G protein dissociation BRET² signal ([1]; concentration 1e-9 M): -0.001942 | Mean (plotted), G protein dissociation BRET² signal ([1]; concentration 3e-9 M): -0.0001851 | Mean (plotted), G protein dissociation BRET² signal ([1]; concentration 1e-8 M): 0.008857 | Mean (plotted), G protein dissociation BRET² signal ([1]; concentration 3e-8 M): 0.0122 | Mean (plotted), G protein dissociation BRET² signal ([1]; concentration 1e-7 M): 0.01041 | Mean (plotted), G protein dissociation BRET² signal ([1]; concentration 3e-7 M): 0.01174 | Mean (plotted), G protein dissociation BRET² signal ([1]; concentration 1e-6 M): 0.01712 | Mean (plotted), G protein dissociation BRET² signal ([1]; concentration 3e-6 M): 0.01801 | Mean (plotted), G protein dissociation BRET² signal ([1]; concentration 1e-5 M): 0.01748 | Mean (plotted), G protein dissociation BRET² signal ([1]; concentration 3e-5 M): 0.01231

CCCCC[C@H](O)/C=C/[C@@H]1[C@@H](C/C=C\CCCC(=O)O)[C@H]2CO[C@@H]1C2 [U-46619]
G protein activation at GPR55-transfected cells (in words) (wt GPR55 (Gα12); wt GPR55, Gα12): inactive | Efficacy ± SEM (%) ([1]; TBXA2, Gα13): 100 ± 2% | pEC50 ± SEM ([1]; TBXA2, Gα13): 9.03 ± 0.11 | EC50 ([1]; TBXA2R via Gα13, read-out: potency (EC50)): 0.93 nM | Mean (plotted), G protein dissociation BRET² signal ([1]; concentration 10 pM): 0.004083 | Mean (plotted), G protein dissociation BRET² signal ([1]; concentration 30 pM): 0.00585 | Mean (plotted), G protein dissociation BRET² signal ([1]; concentration 300 pM): -0.03967 | Mean (plotted), G protein dissociation BRET² signal ([1]; concentration 1e-9 M): -0.07222 | Mean (plotted), G protein dissociation BRET² signal ([1]; concentration 3e-9 M): -0.103 | Mean (plotted), G protein dissociation BRET² signal ([1]; concentration 3e-8 M): -0.1326 | Mean (plotted), G protein dissociation BRET² signal ([1]; concentration 3e-7 M): -0.1394 | Mean (plotted), G protein dissociation BRET² signal ([1]; concentration 1e-6 M): -0.1409
